We go through seven compounds from ChEMBL document CHEMBL1129088, “Synthesis and antitumor activity of novel duocarmycin derivatives” (Bioorg Med Chem Lett, 1996).

Test [1] has as its system Mus musculus. Briefly: Compound was evaluated in vivo for the antitumor activity against murine sarcoma 180 cell lines at the specified dose 16 mg/kg. In kind it is functional.
Test [2] deals with Mus musculus. Briefly: Compound was evaluated in vivo for the antitumor activity against murine sarcoma 180 cell lines at the specified dose 4.0 mg/kg. In kind it is functional.
Test [3] deals with HeLa. Nature of the test: In vitro cytotoxicity against HeLaS3 cell lines. In kind it is functional, cell-based. The settings on record: Homo sapiens.
Test [4] relates to Mus musculus. Nature of the test: Compound was evaluated in vivo for the antitumor activity against murine sarcoma 180 cell lines at the specified dose 8.0 mg/kg. Type of test: functional.
The test system of test [5] is Mus musculus. Nature of the test: Compound was evaluated in vivo for the antitumor activity against murine sarcoma 180 cell lines at the specified dose 0.25 mg/kg. Type of test: functional.
The test system of test [6] is Mus musculus. Briefly: Compound was evaluated in vivo for the antitumor activity against murine sarcoma 180 cell lines at the specified dose 2.0 mg/kg. In kind it is functional.
The subject of test [7] is Mus musculus. Briefly: Compound was evaluated in vivo for the antitumor activity against murine sarcoma 180 cell lines at the specified dose 0.5 mg/kg. In kind it is functional.
Test [8] relates to Mus musculus. Briefly: Compound was evaluated in vivo for the antitumor activity against murine sarcoma 180 cell lines at the specified dose 1.0 mg/kg. In kind it is functional.
Test [9] has as its system Mus musculus. Nature of the test: Compound was evaluated in vivo for the antitumor activity against murine sarcoma 180 cell lines at the specified dose 1 mg/kg. Type of test: functional.

For orientation: IC50 means the concentration that gives 50% inhibition. Read a high IC50 as weaker potency.

As to `CNc1ccc(/C=C/C(=O)N2C[C@@H](CBr)c3c2cc(OC(=O)N(C)C)c2c3C(=O)[C@](C)(C(=O)OC)N2)cc1`, the T/C in test [1] turned out to be 0.055; in test [2] it was 0.18; in [4] it was 0.1. In test [3], the IC50 is 720 nM.

For `COC(=O)[C@]1(C)Nc2c(O)cc3c(c2C1=O)[C@H](CBr)CN3C(=O)c1cc2cc(OC)c(OC)c(OC)c2[nH]1`, in test [5], the T/C was determined as 0.024. The IC50 in [3] was found to be 0.028 nM.

Turning to `COC(=O)[C@]1(C)Nc2c(OC(=O)N(C)C)cc3c(c2C1=O)[C@H](CBr)CN3C(=O)/C=C/c1ccc(OC)cc1`, the T/C stood at 0.057 in [1], 0.19 in test [2] and 0.14 in test [4]. The midpoint of inhibition in [3], the IC50, lay at 510 nM.

`COC(=O)Nc1ccc2[nH]c(C(=O)N3C[C@@H](CBr)c4c3cc(OC(=O)N(C)C)c3c4C(=O)[C@](C)(C(=O)OC)N3)cc2c1`: the T/C in [2] is 0.13; in test [6], 0.31. The compound also had a half-maximal inhibitory concentration (IC50) in test [3] of 584 nM.

`COC(=O)[C@]1(C)Nc2c(OC(=O)N(C)C)cc3c(c2C1=O)[C@H](CBr)CN3C(=O)c1cc2cc(OC)ccc2o1`: the IC50 in test [3] is 400 nM. For the same compound, the T/C is listed as 0.26 in test [7] and 0.13 in test [8].

For the compound `COC(=O)[C@@]1(C)C(=O)c2c3c(cc(O)c2N1C(=O)N(C)C)N(C(=O)c1cc2cc(OC)c(OC)c(OC)c2[nH]1)C[C@H]3CBr`, the values for the T/C in test [5], in [9] and in [7] were 0.31, 0.087 and 0.13, respectively. Also, the IC50 in [3] was 56 nM.

Take `COC(=O)[C@]1(C)Nc2c(OC(=O)N(C)C)cc3c(c2C1=O)[C@H](CBr)CN3C(=O)COc1ccc(OC)cc1`: the T/C was found to be 0.076 in test [1], 0.24 in [2] and 0.16 in [4]. The compound also showed an IC50 in test [3] of 98 nM.
